The subject of one assay is PIP5K1C and PIP4K2C. The settings on record: for PIP5K1C and PIP4K2C; cited from earlier work.
Another assay has as its system pain hypersensitivity. The following applies: injected intrathecally, rodent models of chronic pain; listed as UNC3230; cited from earlier work.
The next assay deals with PIP5K1C (Homo sapiens, UniProt O60331). Put plainly: ATP competition studies using the mobility shift assay. It counts as biochemical. The following applies: read-out: average Ki; two independent ATP competition studies.
A further assay has as its system DRG neurons. The settings on record: cited from earlier work.

Each structure is given as a SMILES string. “Also recorded” adds a separate entry of the source.

As usually defined, the Ki is a dissociation constant, usually derived from enzyme kinetics or from competition with a known ligand.

Sequence of PIP5K1C (O60331 whole entry): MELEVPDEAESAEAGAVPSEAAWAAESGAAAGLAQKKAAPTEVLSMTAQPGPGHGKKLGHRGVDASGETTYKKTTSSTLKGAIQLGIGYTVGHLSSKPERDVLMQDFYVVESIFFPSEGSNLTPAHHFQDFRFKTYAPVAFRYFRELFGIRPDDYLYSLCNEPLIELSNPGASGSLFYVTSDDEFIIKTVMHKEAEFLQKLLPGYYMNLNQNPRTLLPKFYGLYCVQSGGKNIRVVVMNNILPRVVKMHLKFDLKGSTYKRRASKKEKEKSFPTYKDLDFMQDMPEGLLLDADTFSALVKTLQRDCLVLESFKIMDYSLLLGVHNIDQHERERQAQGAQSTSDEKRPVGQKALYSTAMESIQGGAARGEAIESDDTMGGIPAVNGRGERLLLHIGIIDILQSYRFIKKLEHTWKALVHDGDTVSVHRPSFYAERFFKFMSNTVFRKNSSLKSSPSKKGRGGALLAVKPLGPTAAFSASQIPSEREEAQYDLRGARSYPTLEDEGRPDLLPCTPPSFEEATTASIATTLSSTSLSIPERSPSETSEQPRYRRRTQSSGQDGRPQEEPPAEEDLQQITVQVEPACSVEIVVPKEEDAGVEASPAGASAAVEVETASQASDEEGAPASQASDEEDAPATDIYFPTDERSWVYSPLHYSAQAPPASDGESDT

On to `NC(=O)c1nc(Nc2ccccc2)sc1NC(=O)C1CCCCC1` [Compound 1], for which the selectivity result with PIP5K1C and PIP4K2C is “highly selective”. For the same compound, the “effect on pain hypersensitivity / nociceptive sensitization” value in the assay with pain hypersensitivity is recorded as “reduce nociceptive sensitization; also recorded: attenuated pain hypersensitivity”. Also, the Ki on PIP5K1C was 23 nM. Also, in the assay on DRG neurons, the “effect on PIP2 in DRG neurons” value was “reduced PIP2”.

The values above are taken from article PMC4610143 (Journal of biomolecular screening, 2014).
